The results in this text go back to patent publication US20230097866A1, “BACTERIAL TOPOISOMERASE INHIBITORS DERIVED FROM ISOMANNIDE” (Ohio State Innovation Foundation, priority 2020, published 2023).

Data set [1] concerns Enterococcus faecium DRL-4193. The data set is described as follows: MIC panel (Laboratory Specialists, Inc.), E. faecium DRL-4193. In kind it is cell-based. Conditions: DRL4193, Cmpd. 6, vancomycin-susceptible strain.
The target of data set [2] is T1, Nav1.5 Late Current Human Ion Channel (Homo sapiens, UniProt Q14524).
T1 construct: expressed in transfected cells
T1 sequence (Q14524 whole entry): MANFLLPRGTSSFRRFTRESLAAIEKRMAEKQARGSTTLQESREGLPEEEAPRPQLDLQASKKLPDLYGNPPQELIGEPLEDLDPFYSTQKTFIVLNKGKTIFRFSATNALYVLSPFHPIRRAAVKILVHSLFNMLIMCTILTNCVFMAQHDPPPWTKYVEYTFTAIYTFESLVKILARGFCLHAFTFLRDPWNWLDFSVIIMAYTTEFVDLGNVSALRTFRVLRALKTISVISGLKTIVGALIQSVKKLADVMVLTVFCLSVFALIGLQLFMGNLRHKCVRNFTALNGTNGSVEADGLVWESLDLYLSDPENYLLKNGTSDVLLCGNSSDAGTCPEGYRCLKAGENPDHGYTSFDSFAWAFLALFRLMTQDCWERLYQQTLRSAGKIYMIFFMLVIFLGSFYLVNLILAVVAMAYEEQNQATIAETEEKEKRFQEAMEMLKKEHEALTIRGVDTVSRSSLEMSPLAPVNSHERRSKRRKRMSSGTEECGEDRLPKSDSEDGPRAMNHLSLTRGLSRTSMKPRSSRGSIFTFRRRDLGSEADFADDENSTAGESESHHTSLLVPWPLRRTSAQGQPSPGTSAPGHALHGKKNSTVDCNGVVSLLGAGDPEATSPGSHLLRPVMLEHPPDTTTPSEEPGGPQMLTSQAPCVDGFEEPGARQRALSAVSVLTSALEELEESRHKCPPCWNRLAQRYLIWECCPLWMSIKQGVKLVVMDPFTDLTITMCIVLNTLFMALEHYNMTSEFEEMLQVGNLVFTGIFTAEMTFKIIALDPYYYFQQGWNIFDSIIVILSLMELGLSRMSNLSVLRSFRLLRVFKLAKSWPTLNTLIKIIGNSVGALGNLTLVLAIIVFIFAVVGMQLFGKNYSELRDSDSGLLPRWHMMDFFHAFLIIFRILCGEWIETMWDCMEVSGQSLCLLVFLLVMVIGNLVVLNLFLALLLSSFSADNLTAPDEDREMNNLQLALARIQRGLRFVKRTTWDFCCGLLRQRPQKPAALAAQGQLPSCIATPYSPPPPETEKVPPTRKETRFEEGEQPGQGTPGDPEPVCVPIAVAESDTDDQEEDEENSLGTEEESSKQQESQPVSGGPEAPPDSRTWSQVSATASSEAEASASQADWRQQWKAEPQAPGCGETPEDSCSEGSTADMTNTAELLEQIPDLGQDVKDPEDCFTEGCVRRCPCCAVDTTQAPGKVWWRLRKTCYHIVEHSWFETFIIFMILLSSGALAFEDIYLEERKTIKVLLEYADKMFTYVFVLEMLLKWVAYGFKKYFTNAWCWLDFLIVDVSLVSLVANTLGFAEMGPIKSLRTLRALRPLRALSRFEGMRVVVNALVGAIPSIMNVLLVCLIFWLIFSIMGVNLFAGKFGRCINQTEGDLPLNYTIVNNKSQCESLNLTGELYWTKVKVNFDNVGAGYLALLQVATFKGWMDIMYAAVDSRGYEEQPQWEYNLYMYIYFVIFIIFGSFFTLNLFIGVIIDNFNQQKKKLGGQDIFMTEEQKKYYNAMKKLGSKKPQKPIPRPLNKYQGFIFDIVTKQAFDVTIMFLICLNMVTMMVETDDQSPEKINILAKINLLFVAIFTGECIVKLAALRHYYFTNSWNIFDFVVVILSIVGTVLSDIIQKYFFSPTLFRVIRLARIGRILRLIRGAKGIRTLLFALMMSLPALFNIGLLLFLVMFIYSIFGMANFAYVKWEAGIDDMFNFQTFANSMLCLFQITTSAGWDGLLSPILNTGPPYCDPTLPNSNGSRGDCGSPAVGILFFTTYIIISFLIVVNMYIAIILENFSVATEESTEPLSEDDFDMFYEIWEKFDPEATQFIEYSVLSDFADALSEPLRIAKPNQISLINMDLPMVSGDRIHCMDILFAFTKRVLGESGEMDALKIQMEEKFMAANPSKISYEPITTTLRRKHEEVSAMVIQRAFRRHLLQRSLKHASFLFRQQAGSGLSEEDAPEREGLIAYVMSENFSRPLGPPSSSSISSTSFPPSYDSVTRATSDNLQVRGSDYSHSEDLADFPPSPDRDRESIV
In kind it is cell-based. Conditions: in presence of 30 nM ATXII. The source says:
Early drug discovery programs commonly assess hERG inhibition as the only indicator of potential cardiovascular safety concerns. Researchers have recently recommended a more rigorous evaluation of multiple cardiac ion channels to provide a more comprehensive cardiovascular risk assessment (Fermini, B., et al., A New Perspective in the Field of Cardiac Safety Testing through the Comprehensive In Vitro Proarrhythmia Assay Paradigm. J. Biomolec. Screening 2016, 21, 1-11). Given the promising initial results for 6, further evaluation was undertaken (in duplicate) in a Comprehensive in vitro Proarrhythmia Assay (CiPA) eight assay panel run on the QPatch HT (Sophion, Denmark) automated patch clamp system at three concentrations (3, 30, and 100 μM). All data were filtered for seal quality, seal drop, and current amplitude. A stock solution of the test compound at 30 mM concentration was prepared in DMSO.
The parameters measured were the maximum inward current (charge) evoked on stepping to −15mV from the test pulse in the presence of 30 nM ATXII. The peak and ramp current (charge) amplitude was calculated before and after compound addition and the amount of current (charge) was assessed by dividing the Test compound current (charge) by the Control current (charge). Control is the mean hNav1.5 late current (charge) collected 15 seconds at the end of the control (30 nM ATXII); Test Compound is the mean hNav1.5 current (charge) collected in the presence of test compound and 30 nM ATXII at each concentration. The positive control was ranolizine.

Data set [3] is described as follows: physchem. The conditions noted are these: aqueous buffer, kinetic from dmso stock; buffered aqueous solution (pH 7.4). It counts as physicochemical. The protocol:
Test compounds were prepared at 10 mM in 100% DMSO and diluted into aqueous buffer, pH 7.4, to achieve a final test compound concentration of 100 μM with a final DMSO concentration of 1%. Caffeine and tamoxifen were assayed as control compounds. The samples were shaken for 90 minutes at room temperature and then filtered through a 0.4 μm filter plate. Filtrates were collected and analyzed using LC-MS/MS.

The nature of data set [4]: in vitro. It counts as in vitro ADME. The conditions noted are these: pH 7.4, 10 μM, equilibrium dialysis. The protocol: In this assay an equilibrium dialysis technique was used to separate unbound test compound from compound bound to proteins. The plasma was spiked with the test compound at 10 μM with a final DMSO concentration of 1%. The dialysate compartment was loaded with phosphate buffered saline (PBS, pH 7.4) and the sample side was loaded with equal volume of the spiked plasma, After incubation at 37° C. for 4 hours, samples were removed from each plasma and buffer chamber; plasma protein was removed by treatment with acetonitrile. Recovered samples were analyzed using LC-MS.
(In equilibrium dialysis free small molecules cross a membrane that holds back macromolecules.)

In data set [5] the test system is Streptococcus pneumoniae LSI-4246. The data set is described as follows: MIC panel (Laboratory Specialists, Inc.), S. pneumoniae LSI-4246. In kind it is cell-based. Conditions: LSI4246, Cmpd. 6, penicillin-resistant strain.

In brackets after ≈: the same amount, converted by molar mass. Where two headings read alike, the source gives them in different places.

Turning to `COc1ccc2ncc(F)c(CC[C@@]3(O)CO[C@@H]4[C@@H](NCc5cc6c(cn5)OCCO6)CO[C@@H]43)c2n1` [Compound 6, (3R, 3aS,6S,6aR)-6-(((2,3-dihydro-[1,4]dioxino[2,36-c]pyridin-7-yl)methyl)amnino)-3-(2-(3-fluoro-6-methoxy-1,5-naphthyridin-4-yl)ethyl)hexahydrofuro[3,2-b]furan-3-ol], the MIC in data set [1] was 2 µg/mL (≈ 4.01 µM); in data set [5] it was at most 0.12 µg/mL. The “% Inhibition Nav1.5 Late (antagonist - inhibition of ATXII EC50 current)” value in data set [2] (3 μM) came out at 4.3%; in data set [2] (30 μM), 19.1%; in data set [2] (100 μM), 50.9%. The compound further showed a solubility (kinetic) in data set [3] of 76.2 µM (≈ 38 µg/mL). The values for the fraction unbound in data set [4] (human plasma) and in data set [4] (mouse plasma) were 0.138 and 0.047, respectively.

What is called MIC is the smallest concentration in the dilution series that meets the test's criterion for growth inhibition. For orientation: solubility (kinetic) means solubility judged after dilution from a stock solution rather than from solid. The fraction unbound is the share of the substance not bound to proteins or other matrix. A higher fraction unbound goes with much free substance.
